# Assay results: patent US10005817B2, “Peptide pharmaceuticals” (EUMEDERIS PHARMACEUTICALS, INC., priority 2012, dated 2018)
# Non-standard residues stand in square brackets, D forms with d. Residues, ends and D or L forms follow the SMILES beside them. *: point of attachment. βGlcA(1-O-hexadecyl) = CCCCCCCCCCCCCCCCO[C@@H]1O[C@H](C(=O)*)[C@@H](O)[C@H](O)[C@H]1O; βDGlcA(1-OC18H37) = CCCCCCCCCCCCCCCCCCO[C@@H]1O[C@H](C(=O)*)[C@@H](O)[C@H](O)[C@H]1O; GlcA(β-D,1-O-dodecyl) = CCCCCCCCCCCCO[C@@H]1O[C@H](C(=O)*)[C@@H](O)[C@H](O)[C@H]1O; GlcA(β1-O-octyl) = CCCCCCCCO[C@@H]1O[C@H](C(=O)*)[C@@H](O)[C@H](O)[C@H]1O; βGlcA(1-OMe) = CO[C@@H]1O[C@H](C(=O)*)[C@@H](O)[C@H](O)[C@H]1O; Dmt = Cc1cc(O)cc(C)c1C[C@H](N)C(=O)O; hArg = N=C(N)NCCCC[C@H](N)C(=O)O; Tic = O=C(O)[C@@H]1Cc2ccccc2CN1; Nle = CCCC[C@H](N)C(=O)O; Ac5c = NC1(C(=O)O)CCCC1; Aib = CC(C)(N)C(=O)O; NHBn = c1ccc(CN*)cc1
# Assays:
# [1] = in water; cited from earlier work
# PTH receptor (PTHR1) = molecular target: T1, PTH receptor (PTHR1) (Homo sapiens, UniProt Q03431); assay: PTH1 cellular assay, cAMP, agonist mode (SaOS2 cells, Cerep); format: cell-based; details: for Emax: SAOS-2, read-out: Maximal response (% PTHrP)
# T1 construct: Cerep SA
# T1 sequence (Q03431 27-593): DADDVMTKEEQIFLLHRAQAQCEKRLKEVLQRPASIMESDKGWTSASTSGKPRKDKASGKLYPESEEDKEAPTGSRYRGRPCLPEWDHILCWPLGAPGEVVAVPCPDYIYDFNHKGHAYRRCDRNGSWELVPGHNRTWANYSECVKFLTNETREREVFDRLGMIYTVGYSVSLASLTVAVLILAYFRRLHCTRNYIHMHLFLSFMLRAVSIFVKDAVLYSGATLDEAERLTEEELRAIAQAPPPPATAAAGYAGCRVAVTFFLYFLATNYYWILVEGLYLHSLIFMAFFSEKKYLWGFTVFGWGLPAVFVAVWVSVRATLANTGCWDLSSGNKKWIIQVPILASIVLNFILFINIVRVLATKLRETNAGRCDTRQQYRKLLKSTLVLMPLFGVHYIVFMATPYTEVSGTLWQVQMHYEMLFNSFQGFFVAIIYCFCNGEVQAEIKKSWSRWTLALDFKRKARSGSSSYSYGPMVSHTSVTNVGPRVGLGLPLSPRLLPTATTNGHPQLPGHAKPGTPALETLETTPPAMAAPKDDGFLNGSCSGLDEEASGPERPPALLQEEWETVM
# Description: Compounds were weighed precisely in an amount of approximately 1 mg and assayed in standard cellular assays (cerep SA). The readout is the amount of cAMP generated in the cells treated with the test compounds, in either agonist or antagonist mode.
# Compounds were dissolved in water and diluted in assay buffer containing 1% bovine serum albumin.
# mu opioid receptor = molecular target: T2, mu opioid receptor (Homo sapiens, UniProt P35372); assay: mu opioid receptor cellular assay (MOP), agonist mode, cAMP readout (Cerep); format: cell-based
# T2 construct: Cerep
# Description: (§1) Compounds were weighed precisely in an amount of approximately 2 mg and assayed in standard cellular assays by the contract research organization Cerep, Inc. (Pullman, Wash.) as executed at their subsidiary, Cerep SA (Le Bois l'Eveque, France). The readout is the amount of cAMP generated in the cells treated with the test compounds, in either agonist or antagonist mode. The assays used were the mu opioid receptor cellular assay (MOP in agonist and antagonist mode), the delta2 opioid receptor cellular assay (DOP in agonist and antagonist mode) and the kappa opioid receptor cellular assay (KOP in agonist and antagonist mode). The assays used are described in Wang, J. B., et al. (1994) FEBS Lett 338: 217-222, Law, P. Y. and Loh, H. H. (1993) Mol Pharmacol 43: 684-693, and Avidor-Reiss, T., et al. (1995) FEBS Lett 361: 70-74. The stimulant for the cells in the DOR antagonist assay was 3×10E-8M DPDPE, a well-accepted DOR literature standard.
# delta2 opioid receptor = molecular target: T3, delta2 opioid receptor (Mus musculus, UniProt P32300); assay: delta2 opioid receptor cellular assay (DOP), antagonist mode vs DPDPE, cAMP readout; format: cell-based
# T3 construct: Cerep
# Description: as §1
# [2] = plasma protease stability, incubation in human plasma at 37 degC, LC-MS; format: in vitro ADME; details: over 8 hrs
# T3 sequence (P32300 whole entry): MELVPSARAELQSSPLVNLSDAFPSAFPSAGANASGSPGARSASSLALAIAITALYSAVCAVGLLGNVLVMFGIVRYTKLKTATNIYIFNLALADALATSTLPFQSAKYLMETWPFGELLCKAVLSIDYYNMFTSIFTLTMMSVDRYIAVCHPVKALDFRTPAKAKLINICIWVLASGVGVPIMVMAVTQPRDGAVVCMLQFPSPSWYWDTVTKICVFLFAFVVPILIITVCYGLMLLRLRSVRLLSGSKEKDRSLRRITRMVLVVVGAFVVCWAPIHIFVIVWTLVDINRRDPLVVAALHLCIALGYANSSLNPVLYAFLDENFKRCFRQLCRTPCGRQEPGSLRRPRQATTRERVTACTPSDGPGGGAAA
# T2 sequence (P35372 whole entry): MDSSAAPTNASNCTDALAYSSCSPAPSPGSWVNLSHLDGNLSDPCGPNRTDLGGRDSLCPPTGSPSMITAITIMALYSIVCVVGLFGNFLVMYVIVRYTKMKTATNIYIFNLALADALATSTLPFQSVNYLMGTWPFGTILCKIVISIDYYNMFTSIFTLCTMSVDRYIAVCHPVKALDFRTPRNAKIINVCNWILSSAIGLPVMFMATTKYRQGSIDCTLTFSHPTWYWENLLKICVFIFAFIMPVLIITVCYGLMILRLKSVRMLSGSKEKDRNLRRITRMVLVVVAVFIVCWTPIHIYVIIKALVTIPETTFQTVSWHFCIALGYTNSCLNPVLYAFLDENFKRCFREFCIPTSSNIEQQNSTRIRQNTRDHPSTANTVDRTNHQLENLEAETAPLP
Compound,CMC [1] [mM],Characterization (MOP) (mu opioid receptor),Characterization (DOP) (delta2 opioid receptor),also measured
CCCCCCCCCCCCCCO[C@@H]1O[C@H](CO)[C@@H](O[C@@H]2O[C@@H](CO)[C@H](O)[C@@H](O)[C@@H]2O)[C@H](O)[C@H]1O (stereo in doubt) [Tetradecyl maltoside],0.01,–,–,–
CCCCCCCCCCCCCO[C@@H]1O[C@H](CO)[C@@H](OC2OC(CO)C(O)C(O)C2O)[C@H](O)[C@H]1O (stereo in doubt) [Tridecyl maltoside],0.03,–,–,–
CCCCCCCCCCO[C@@H]1O[C@H](CO)[C@@H](O[C@H]2O[C@H](CO)[C@@H](O)[C@H](O)[C@H]2O)[C@H](O)[C@H]1O [Decyl maltoside],1.8,–,–,–
CCCCCCCCCCCCO[C@@H]1O[C@H](CO)[C@@H](O[C@H]2O[C@H](CO)[C@@H](O)[C@H](O)[C@H]2O)[C@H](O)[C@H]1O [Dodecyl-β-D-maltoside],0.17,–,–,–
"CCCCCCCCCCCCCCCCO[C@@H]1O[C@H](C(=O)NCCCC[C@H](NC(=O)C(C)(C)NC(=O)[C@H](CCC(N)=O)NC(=O)[C@@H](NC(=O)[C@H](Cc2c[nH]c3ccccc23)NC(=O)[C@H](CCCNC(=N)N)NC(=O)[C@H](C)NC(=O)[C@H](CCCCNC(=N)N)NC(=O)[C@H](CCC(N)=O)NC(=O)[C@H](Cc2c[nH]cn2)NC(=O)[C@H](CCCC)NC(=O)[C@H](CC(C)C)NC(=O)[C@H](CCC(N)=O)NC(=O)[C@@H](NC(=O)[C@H](CCC(=O)O)NC(=O)C(C)(C)NC(=O)[C@@H](NC(=O)C2(N)CCCC2)C(C)C)[C@@H](C)CC)[C@@H](C)CC)C(=O)NC(C)(C)C(N)=O)[C@@H](O)[C@H](O)[C@H]1O [EU-287, Ac5c1-VaL2-Aib3-Glu4-Ile5-Gln6-Leu7-Nle8-His9-Gln10-hArg11-Ala12-Arg13-TrP14-Ile15-Gln16-Aib17-Lys(N-epsilon-1′-hexadecylbeta-D-glucuronyL)18-Aib19-NH2] (H-[Ac5c]V[Aib]EIQL[Nle]HQ[hArg]ARWIQ[Aib]K(βGlcA(1-O-hexadecyl))[Aib]-NH2)",–,–,–,Characterization (PTH receptor (PTHR1)): agonist; EC50 (PTH receptor (PTHR1)): < 1 nM; Emax (PTH receptor (PTHR1)): 128%
"CCCCCCCCCCCCCCCCCCO[C@@H]1O[C@H](C(=O)NCCCC[C@H](NC(=O)C(C)(C)NC(=O)[C@H](CCC(N)=O)NC(=O)[C@@H](NC(=O)[C@H](Cc2c[nH]c3ccccc23)NC(=O)[C@H](CCCNC(=N)N)NC(=O)[C@H](C)NC(=O)[C@H](CCCCNC(=N)N)NC(=O)[C@H](CCC(N)=O)NC(=O)[C@H](Cc2c[nH]cn2)NC(=O)[C@H](CCCC)NC(=O)[C@H](CC(C)C)NC(=O)[C@H](CCC(N)=O)NC(=O)[C@@H](NC(=O)[C@H](CCC(=O)O)NC(=O)C(C)(C)NC(=O)[C@@H](NC(=O)C2(N)CCCC2)C(C)C)[C@@H](C)CC)[C@@H](C)CC)C(=O)NC(C)(C)C(N)=O)[C@@H](O)[C@H](O)[C@H]1O [EU-288, Ac5c1-VaL2-Aib3-Glu4-Ile5-Gln6-Leu7-Nle8-His9-Gln10-hArg11-Ala12-Arg13-Trp14-Ile15-Gln16-Aib17-Lys(N-epsilon-1′-octadecylbeta-D-glucuronyl)18-Aib19-NH2] (H-[Ac5c]V[Aib]EIQL[Nle]HQ[hArg]ARWIQ[Aib]K(βDGlcA(1-OC18H37))[Aib]-NH2)",–,–,–,Characterization (PTH receptor (PTHR1)): agonist; EC50 (PTH receptor (PTHR1)): < 1 nM; Emax (PTH receptor (PTHR1)): 130%
"CCCCCCCCCCCCO[C@@H]1O[C@H](C(=O)NCCCC[C@H](NC(=O)[C@H](Cc2ccccc2)NC(=O)[C@@H]2Cc3ccccc3CN2C(=O)[C@@H](N)Cc2c(C)cc(O)cc2C)C(N)=O)[C@@H](O)[C@H](O)[C@H]1O [EU-A179, Dmt-Tic-Phe-Lys(C12-glucuronyl)-NH2] (H-[Dmt][Tic]FK(GlcA(β-D,1-O-dodecyl))-NH2)",–,Pure MOP Ag;,pure DOP antag,–
"CCCCCCCCO[C@@H]1O[C@H](C(=O)NCCCC[C@H](NC(=O)[C@H](Cc2ccccc2)NC(=O)[C@@H]2Cc3ccccc3CN2C(=O)[C@@H](N)Cc2c(C)cc(O)cc2C)C(N)=O)[C@@H](O)[C@H](O)[C@H]1O [EU-A180, Dmt-Tic-Phe-Lys(C8-glucuronyl)-NH2] (H-[Dmt][Tic]FK(GlcA(β1-O-octyl))-NH2)",–,Pure MOP Ag;,pure DOP antag,EC50 (mu opioid receptor): 36 nM
"CO[C@@H]1O[C@H](C(=O)NCCCC[C@H](NC(=O)[C@H](Cc2ccccc2)NC(=O)[C@H](Cc2ccccc2)NC(=O)[C@@H]2Cc3ccccc3CN2C(=O)[C@@H](N)Cc2c(C)cc(O)cc2C)C(N)=O)[C@@H](O)[C@H](O)[C@H]1O [EU-A189, 2′,6′-dimethyl-L-tyrosyl-L-1,2,3,4-tetrahydroisoquinoline-3-carbonyl-L-phenylalanyl-L-phenylalanyl-Nε-(1′-methyl β-D-glucuronyl)-L-lysyl-amide]",–,Pure MOP Ag;,pure DOP antag,EC50 (mu opioid receptor): 41 nM
"CCCCCCCCCCCCO[C@@H]1O[C@H](C(=O)NCCCC[C@H](NC(=O)[C@H](Cc2ccccc2)NC(=O)[C@H](Cc2ccccc2)NC(=O)[C@@H]2Cc3ccccc3CN2C(=O)[C@@H](N)Cc2c(C)cc(O)cc2C)C(N)=O)[C@@H](O)[C@H](O)[C@H]1O [EU-A190, Dmt-Tic-Phe-Phe-Lys(C12-glucuronyl)-NH2]",–,Pure MOP Ag;,pure DOP antag,–
"CO[C@@H]1O[C@H](C(=O)NCCCC[C@H](NC(=O)[C@H](Cc2ccccc2)NC(=O)[C@@H]2Cc3ccccc3CN2C(=O)[C@@H](N)Cc2c(C)cc(O)cc2C)C(=O)NC(C)(C)C(N)=O)[C@@H](O)[C@H](O)[C@H]1O [EU-A600, Dmt-Tic-Phe-Lys(C1-glucuronyl)-Aib-NH2] (H-[Dmt][Tic]FK(βGlcA(1-OMe))[Aib]-NH2; N-terminus assumed)",–,Pure MOP Ag;,pure DOP antag,EC50 (mu opioid receptor): 110 nM
"CO[C@@H]1O[C@H](C(=O)NCCCC[C@@H](NC(=O)[C@H](Cc2ccccc2)NC(=O)[C@@H]2Cc3ccccc3CN2C(=O)[C@@H](N)Cc2c(C)cc(O)cc2C)C(N)=O)[C@@H](O)[C@H](O)[C@H]1O [EU-A615, Dmt-Tic-Phe-D-Lys(C1-glucuronyl)-Aib-NH2] (H-[Dmt][Tic]F[dK](βGlcA(1-OMe))-NH2)",–,Pure MOP Ag;,pure DOP antag,–
"CO[C@@H]1O[C@H](C(=O)NCCCC[C@H](NC(=O)[C@H](Cc2ccccc2)NC(=O)[C@@H]2Cc3ccccc3CN2C(=O)[C@@H](N)Cc2c(C)cc(O)cc2C)C(=O)NCc2ccccc2)[C@@H](O)[C@H](O)[C@H]1O [EU-A620, Dmt-Tic-Phe-Lys(C1-glucuronyl)-NHCH2Ph] (H-[Dmt][Tic]FK(βGlcA(1-OMe))-NHBn)",–,Pure MOP Ag;,pure DOP antag,EC50 (mu opioid receptor): 480 nM
"CO[C@@H]1O[C@H](C(=O)NCCCC[C@@H](NC(=O)[C@H](Cc2ccccc2)NC(=O)[C@@H]2Cc3ccccc3CN2C(=O)[C@@H](N)Cc2c(C)cc(O)cc2C)C(=O)NCc2ccccc2)[C@@H](O)[C@H](O)[C@H]1O [EU-A639, Dmt-Tic-Phe-D-Lys(C1-glucuronyl)-NHCH2Ph] (H-[Dmt][Tic]F[dK](βGlcA(1-OMe))-NHBn; N-terminus assumed)",–,Pure MOP Ag;,pure DOP antag,EC50 (mu opioid receptor): 280 nM
"CC[C@H](C)[C@H](NC(=O)[C@H](Cc1ccccc1)NC(=O)[C@H](CCC(=O)O)NC(=O)[C@H](CCCCN)NC(=O)[C@H](C)NC(=O)[C@H](C)NC(=O)[C@H](CCC(N)=O)NC(=O)CNC(=O)[C@H](CCC(=O)O)NC(=O)[C@H](CC(C)C)NC(=O)[C@H](Cc1ccc(O)cc1)NC(=O)[C@H](CO)NC(=O)[C@H](CO)NC(=O)[C@@H](NC(=O)[C@H](CC(=O)O)NC(=O)[C@H](CO)NC(=O)[C@@H](NC(=O)[C@H](Cc1ccccc1)NC(=O)[C@@H](NC(=O)CNC(=O)[C@H](CCC(=O)O)NC(=O)[C@H](C)NC(=O)[C@@H](N)Cc1c[nH]cn1)[C@@H](C)O)[C@@H](C)O)C(C)C)C(=O)N[C@@H](C)C(=O)N[C@@H](Cc1c[nH]c2ccccc12)C(=O)N[C@@H](CC(C)C)C(=O)N[C@H](C(=O)N[C@@H](CCCCN)C(=O)NCC(=O)N[C@@H](CCCNC(=N)N)C(N)=O)C(C)C [GLP-1 (7-36), reference compound]",–,–,–,amount of intact compound versus time in human plasma [2]: rapid decrease
CCCCCCCCO[C@@H]1O[C@H](CO)[C@@H](O[C@H]2O[C@H](CO)[C@@H](O)[C@H](O)[C@H]2O)[C@H](O)[C@H]1O [Octyl maltoside],19.5,–,–,–
Sucrose dodecanoate,0.3,–,–,–
